Laboratory results from US20250353873A1, “COMPOUNDS AND METHODS FOR MODULATING APOE EXPRESSION” (Ionis Pharmaceuticals, Inc., priority 2024, published 2025).
Where “and” joins values, the source holds several entries; their conditions need not be identical. Identical values can stand only once. Strand notation (5' to 3'): a small letter for the sugar, then the base; units joined by * are phosphorothioate-linked, units joined directly phosphodiester-linked; [ ] holds rarer units or linkages, { } end groups; capitals alone tell only the bases. [ms] = mesyl phosphoramidate linkage; k = constrained ethyl (cEt); [5mC] = 5-methylcytosine; d = 2'-deoxy (DNA)

How the values were obtained:
human APOE RNA [1] = assay: Dose-dependent inhibition of human APOE RNA in differentiated SH-SY5Y cells, free uptake, 5 days (Example 5); format: cell-based; conditions: 5 days (Table 14)
Experimental: Modified oligonucleotides selected from the examples above were tested at various doses in differentiated SH-SY5Y cells. The modified oligonucleotides were tested in a series of experiments that had the same culture conditions.
Differentiated SH-SY5Y cells plated at a density of 10,000 cells per well were treated by free uptake with various concentrations of modified oligonucleotide as specified in the tables below. […] APOE RNA levels were measured using the human primer probe set RTS3073 (described herein above). APOE RNA levels were normalized to human PPIA. Human PPIA was amplified using human primer probe set mk_cycloA_2nd (described herein above). Results are presented as percent APOE RNA, relative to the amount of APOE RNA in untreated control cells (% UTC). The half maximal inhibitory concentration (IC50) of each modified oligonucleotide was calculated in GraphPad Prism 10 (GraphPad Software, San Diego, CA) and is also presented in the tables below.

human APOE RNA [2] = assay: Activity in APOE C57BL/6NTac-Apoeem7250 knock-in mice, single ICV bolus, 4 weeks (Example 10); format: in vivo; conditions: single ICV bolus 300 μg, 4 weeks post treatment, normalized to mouse Ppia
Procedure, shortened: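 Knock-in mice (2–4 per group) received one 300 μg ICV bolus of oligonucleotide or PBS. After four weeks, human APOE RNA in cortex and spinal cord measured by RT-qPCR (primer probe set RTS3073), normalized to mouse Ppia, expressed as % of PBS controls.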

human APOE RNA [3] = assay: Activity in APOE C57BL/6NTac-Apoeem7250 knock-in mice, single ICV bolus, 8 weeks (Example 11); format: in vivo; conditions: single ICV bolus 300 μg, 8 weeks post treatment, normalized to mouse Ppia
Procedure, shortened: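 Human APOE knock-in C57BL/6NTac mice given one ICV bolus of 300 μg oligonucleotide; PBS-dosed group as control. At 8 weeks, cortex and spinal cord RNA measured by qRT-PCR (human probe RTS3073), normalized to mouse Ppia, expressed as % of PBS control.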

human APOE RNA [4] = assay: Duration of action study in APOE C57BL/6NTac-Apoeem7250 knock-in mice (Example 16); format: in vivo; conditions: 300 μg ICV
Experimental: Modified oligonucleotides described above were tested in the APOE C57BL/6NTac-Apoeem7250 knock-in mouse model described above.
APOE C57BL/6NTac-Apoeem7250 knock-in mice were divided into groups of 2-4 mice each. Each mouse received a single intracerebroventricular (ICV) bolus of 300 μg of modified oligonucleotide. A group of 2-4 mice received a single ICV bolus with PBS as a negative control.
Mice were sacrificed at various timepoints as indicated in the table below and RNA was extracted from cortical brain tissue and spinal cord for quantitative real-time RT-PCR analysis of RNA expression of APOE using primer probe set RTS3073 (described herein above). APOE RNA levels were normalized to mouse Ppia. Mouse Ppia was amplified using primer probe set m_cyclo24 (described herein above). Results are presented as percent human APOE RNA relative to the amount of human APOE RNA in PBS treated animals, (% control). Each experiment is identified in separate tables below.

human APOE RNA [5] = assay: Dose-dependent inhibition of human APOE RNA in HepG2 cells, electroporation, 50,000 cells per well, RT-PCR normalized to GAPDH (Example 4, Tables 8-10); format: cell-based; conditions: HepG2, electroporation, 24-hour treatment
Procedure, shortened: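 HepG2 cells, 50,000 per well, electroporated with modified oligonucleotide at various concentrations. APOE RNA quantified by RT-PCR with human primer probe set RTS3073, normalized to GAPDH. Values are percent APOE RNA relative to untreated control cells.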

Substance	APOE RNA (% UTC) (human APOE RNA [1]; 5 nM)	APOE RNA (% UTC) (human APOE RNA [1]; 13 nM)	APOE RNA (% control) Cortex (human APOE RNA [2])	APOE RNA (% control) Spinal Cord (human APOE RNA [2])	APOE RNA (% control) Cortex (human APOE RNA [3]) [% control]	APOE RNA (% control) Spinal Cord (human APOE RNA [3]) [% control]	APOE RNA (% control) Cortex (human APOE RNA [4]; 112 days post-dose) [% control]	APOE RNA (% control) Cortex (human APOE RNA [4]; 140 days post-dose) [% control]	APOE RNA (% control) Spinal Cord (human APOE RNA [4]; 112 days post-dose) [% control]	APOE RNA (% control) Spinal Cord (human APOE RNA [4]; 140 days post-dose) [% control]	APOE RNA (% UTC) (human APOE RNA [5]; 5 nM)	APOE RNA (% UTC) (human APOE RNA [5]; 13 nM)	APOE RNA (% UTC) (human APOE RNA [5]; 82 nM)	APOE RNA (% UTC) (human APOE RNA [5]; 205 nM)	APOE RNA (% UTC) (human APOE RNA [5]; 512 nM)	APOE RNA (% UTC) (human APOE RNA [5]; 1,280 nM)	APOE RNA (% UTC) (human APOE RNA [5]; 3,200 nM)	APOE RNA (% UTC) (human APOE RNA [5]; 8,000 nM)	APOE RNA (% UTC) (human APOE RNA [5]; 20,000 nM)	IC50 (human APOE RNA [5]) [nM]	further results
1746804 (k[5mC]*kT*kT*dG[ms]dG[ms]dT[ms]dG[ms]dA[ms]dA[ms]dT*d[5mC]*dT*dT*dT*dA[ms]dT*dT[ms]kA*kA*kA; antisense) [Compound 1746804]	114	117	51 % control and 46 % control	52 % control and 40 % control	40	25	37	60	205	207	89	88	81	66	57	45	40	4	2	680	APOE RNA (% UTC) (human APOE RNA [1]; 33 nM): 120 % UTC; APOE RNA (% UTC) (human APOE RNA [1]; 82 nM): 97 % UTC; APOE RNA (% UTC) (human APOE RNA [1]; 205 nM): 84 % UTC; APOE RNA (% UTC) (human APOE RNA [1]; 512 nM): 82 % UTC; APOE RNA (% UTC) (human APOE RNA [1]; 1,280 nM): 61 % UTC; APOE RNA (% UTC) (human APOE RNA [1]; 3,200 nM): 48 % UTC; APOE RNA (% UTC) (human APOE RNA [1]; 8,000 nM): 32 % UTC; APOE RNA (% UTC) (human APOE RNA [1]; 20,000 nM): 18 % UTC; IC50 (human APOE RNA [1]): 2830 nM; APOE RNA (% UTC) (human APOE RNA [5]; 33 nM): 80 % UTC
1746799 (k[5mC]*dT[ms]kT*dG[ms]kG*dT[ms]dG[ms]dA[ms]dA[ms]dT*d[5mC]*dT*dT*dT*dA[ms]dT*kT*dA[ms]kA*kA; antisense) [Compound 1746799]			47 % control	42 % control	45	39	46	70	78	66	115	130	125	106	84	52	23	24	33	1740	APOE RNA (% UTC) (human APOE RNA [5]; 33 nM): 153 % UTC
1746784 (k[5mC]*kT*kT*dG[ms]dG[ms]dT[ms]dG[ms]dA[ms]dA[ms]dT*d[5mC]*dT*dT*dT*dA[ms]dT*kT*kA*dA[ms]kA; antisense) [Compound 1746784]	82	118	49 % control and 39 % control	26 % control	38	138	38	45	24	56	78	74	80	61	48	29	10	7	7	310	APOE RNA (% UTC) (human APOE RNA [1]; 33 nM): 83 % UTC; APOE RNA (% UTC) (human APOE RNA [1]; 82 nM): 61 % UTC; APOE RNA (% UTC) (human APOE RNA [1]; 205 nM): 49 % UTC; APOE RNA (% UTC) (human APOE RNA [1]; 512 nM): 62 % UTC; APOE RNA (% UTC) (human APOE RNA [1]; 1,280 nM): 36 % UTC; APOE RNA (% UTC) (human APOE RNA [1]; 3,200 nM): 24 % UTC; APOE RNA (% UTC) (human APOE RNA [1]; 8,000 nM): 13 % UTC; APOE RNA (% UTC) (human APOE RNA [1]; 20,000 nM): 6 % UTC; IC50 (human APOE RNA [1]): 440 nM
